Earlier results, collected in US20220313663A1, “ELTROMBOPAG DOSING REGIMEN” (NOVARTIS PHARMACEUTICALS CORPORATION, priority 2019, published 2022).

Details: subjects with Asian ancestry compared to the non-Asian population

CC1=NN(c2ccc(C)c(C)c2)C(=O)/C1=N\Nc1cccc(-c2cccc(C(=O)O)c2)c1O [eltrombopag]
eltrombopag clearance (CL/F): lower
